# Reference: patent US7118895B2, “Process for producing aglycon by using diglycosidase and flavor-improved food containing the aglycon and converting agent to be used in the process” (Amano Enzyme Inc., priority 2000, dated 2006)
# Experiments:
# [1] = test system: β-Glucosidase derived from almond; assay: Reactivity toward various isoflavone glycosides (HPLC); type: biochemical; design: unit not given here; conditions: 55 °C, pH 4.0
# Method in brief: (§1)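 Aglycone liberation was measured by reversed-phase HPLC (260 nm, calibration-curve quantitation) after ethanol extraction at 0, 1, 3 and 6 h. Reactions ran at 55° C, pH 4.0 (20 mM acetate), with each glycoside (from 2 mM methanol stock) and 0.75 AU/mL enzyme solution.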
# [2] = test system: β-Xylosidase derived from pectinase G; assay: as above; type: biochemical; design: unit not given here; conditions: 55 °C, pH 4.0
# Method in brief: as §1
# Crude diglycosidase = assay: Examination of substrate concentration in the conversion into isoflavone aglycons by diglycosidase using soybean materials; type: biochemical, Penicillium multicolor IAM7153;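 also: percent of the isoflavone family total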
# Method in brief: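 Reaction at 55° C, shaken, pH 4.0 (20 mM acetate), using crude diglycosidase from a 1.88 AU/mL enzyme solution on soy flour, soymilk, defatted soybean or soy protein concentrate at 2, 5, 10, 20 or 30% (w/v). Isoflavone aglycons quantified by HPLC of ethanol extracts at 0, 1, 3, 6 h.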
compound,measurement,setting,value
COc1cc2c(=O)c(-c3ccc(O)cc3)coc2cc1O[C@@H]1O[C@H](CO)[C@@H](O)[C@H](O)[C@H]1O [glycitin],aglycon,[1]; Reaction time 0 h,0
same,glucoside,[1]; Reaction time 0 h,100
same,aglycon,[1]; Reaction time 1 h,1.6
same,glucoside,[1]; Reaction time 1 h,98.4
same,aglycon,[1]; Reaction time 3 h,1.9
same,glucoside,[1]; Reaction time 3 h,98.1
same,aglycon,[1]; Reaction time 6 h,1.9
same,glucoside,[1]; Reaction time 6 h,98.1
same,aglycon,[2]; Reaction time 0 h,0
same,glucoside,[2]; Reaction time 0 h,100
same,aglycon,[2]; Reaction time 1 h,0.8
same,glucoside,[2]; Reaction time 1 h,99.2
same,aglycon,[2]; Reaction time 3 h,2.4
same,glucoside,[2]; Reaction time 3 h,97.6
same,aglycon,[2]; Reaction time 6 h,4.5
same,glucoside,[2]; Reaction time 6 h,95.5
same,Decomposition efficiency: ratio of each glycoside/aglycon within its isoflavone family,"Crude diglycosidase; concentrated soybean protein, substrate concentration 2%, heat treatment of enzyme no, reaction time 0 h",52.2%
same,Decomposition efficiency: ratio of each glycoside/aglycon within its isoflavone family,"Crude diglycosidase; concentrated soybean protein, substrate concentration 2%, heat treatment of enzyme no, reaction time 1 h",not detected
same,Decomposition efficiency: ratio of each glycoside/aglycon within its isoflavone family,"Crude diglycosidase; concentrated soybean protein, substrate concentration 2%, heat treatment of enzyme no, reaction time 3 h",not detected
same,Decomposition efficiency: ratio of each glycoside/aglycon within its isoflavone family,"Crude diglycosidase; concentrated soybean protein, substrate concentration 2%, heat treatment of enzyme no, reaction time 6 h",not detected
same,Decomposition efficiency: ratio of each glycoside/aglycon within its isoflavone family,"Crude diglycosidase; concentrated soybean protein, substrate concentration 2%, heat treatment of enzyme yes, reaction time 6 h",53.4%
same,Decomposition efficiency: ratio of each glycoside/aglycon within its isoflavone family,"Crude diglycosidase; concentrated soybean protein, substrate concentration 5%, heat treatment of enzyme no, reaction time 0 h",52.9%
same,Decomposition efficiency: ratio of each glycoside/aglycon within its isoflavone family,"Crude diglycosidase; concentrated soybean protein, substrate concentration 5%, heat treatment of enzyme no, reaction time 1 h",not detected
same,Decomposition efficiency: ratio of each glycoside/aglycon within its isoflavone family,"Crude diglycosidase; concentrated soybean protein, substrate concentration 5%, heat treatment of enzyme no, reaction time 3 h",not detected
same,Decomposition efficiency: ratio of each glycoside/aglycon within its isoflavone family,"Crude diglycosidase; concentrated soybean protein, substrate concentration 5%, heat treatment of enzyme no, reaction time 6 h",not detected
same,Decomposition efficiency: ratio of each glycoside/aglycon within its isoflavone family,"Crude diglycosidase; concentrated soybean protein, substrate concentration 5%, heat treatment of enzyme yes, reaction time 6 h",54.0%
same,Decomposition efficiency: ratio of each glycoside/aglycon within its isoflavone family,"Crude diglycosidase; concentrated soybean protein, substrate concentration 10%, heat treatment of enzyme no, reaction time 0 h",52.9%
same,Decomposition efficiency: ratio of each glycoside/aglycon within its isoflavone family,"Crude diglycosidase; concentrated soybean protein, substrate concentration 10%, heat treatment of enzyme no, reaction time 1 h",1.6%
same,Decomposition efficiency: ratio of each glycoside/aglycon within its isoflavone family,"Crude diglycosidase; concentrated soybean protein, substrate concentration 10%, heat treatment of enzyme no, reaction time 3 h",not detected
same,Decomposition efficiency: ratio of each glycoside/aglycon within its isoflavone family,"Crude diglycosidase; concentrated soybean protein, substrate concentration 10%, heat treatment of enzyme no, reaction time 6 h",not detected
same,Decomposition efficiency: ratio of each glycoside/aglycon within its isoflavone family,"Crude diglycosidase; concentrated soybean protein, substrate concentration 10%, heat treatment of enzyme yes, reaction time 6 h",53.4%
same,Decomposition efficiency: ratio of each glycoside/aglycon within its isoflavone family,"Crude diglycosidase; concentrated soybean protein, substrate concentration 20%, heat treatment of enzyme no, reaction time 0 h",53.1%
same,Decomposition efficiency: ratio of each glycoside/aglycon within its isoflavone family,"Crude diglycosidase; concentrated soybean protein, substrate concentration 20%, heat treatment of enzyme no, reaction time 1 h",13.2%
same,Decomposition efficiency: ratio of each glycoside/aglycon within its isoflavone family,"Crude diglycosidase; concentrated soybean protein, substrate concentration 20%, heat treatment of enzyme no, reaction time 3 h",not detected
same,Decomposition efficiency: ratio of each glycoside/aglycon within its isoflavone family,"Crude diglycosidase; concentrated soybean protein, substrate concentration 20%, heat treatment of enzyme no, reaction time 6 h",not detected
same,Decomposition efficiency: ratio of each glycoside/aglycon within its isoflavone family,"Crude diglycosidase; concentrated soybean protein, substrate concentration 20%, heat treatment of enzyme yes, reaction time 6 h",52.8%
same,Decomposition efficiency: ratio of each glycoside/aglycon within its isoflavone family,"Crude diglycosidase; concentrated soybean protein, substrate concentration 30%, heat treatment of enzyme no, reaction time 0 h",57.5%
same,Decomposition efficiency: ratio of each glycoside/aglycon within its isoflavone family,"Crude diglycosidase; concentrated soybean protein, substrate concentration 30%, heat treatment of enzyme no, reaction time 1 h",2.0%
same,Decomposition efficiency: ratio of each glycoside/aglycon within its isoflavone family,"Crude diglycosidase; concentrated soybean protein, substrate concentration 30%, heat treatment of enzyme no, reaction time 3 h",not detected
same,Decomposition efficiency: ratio of each glycoside/aglycon within its isoflavone family,"Crude diglycosidase; concentrated soybean protein, substrate concentration 30%, heat treatment of enzyme no, reaction time 6 h",not detected
same,Decomposition efficiency: ratio of each glycoside/aglycon within its isoflavone family,"Crude diglycosidase; concentrated soybean protein, substrate concentration 30%, heat treatment of enzyme yes, reaction time 6 h",58.0%
same,Decomposition efficiency: ratio of each glycoside/aglycon within its isoflavone family,"Crude diglycosidase; defatted soybean, substrate concentration 2%, heat treatment of enzyme no, reaction time 0 h",not detected
same,Decomposition efficiency: ratio of each glycoside/aglycon within its isoflavone family,"Crude diglycosidase; defatted soybean, substrate concentration 2%, heat treatment of enzyme no, reaction time 1 h",not detected
same,Decomposition efficiency: ratio of each glycoside/aglycon within its isoflavone family,"Crude diglycosidase; defatted soybean, substrate concentration 2%, heat treatment of enzyme no, reaction time 3 h",not detected
same,Decomposition efficiency: ratio of each glycoside/aglycon within its isoflavone family,"Crude diglycosidase; defatted soybean, substrate concentration 2%, heat treatment of enzyme no, reaction time 6 h",not detected
same,Decomposition efficiency: ratio of each glycoside/aglycon within its isoflavone family,"Crude diglycosidase; defatted soybean, substrate concentration 2%, heat treatment of enzyme yes, reaction time 6 h",not detected
same,Decomposition efficiency: ratio of each glycoside/aglycon within its isoflavone family,"Crude diglycosidase; defatted soybean, substrate concentration 5%, heat treatment of enzyme no, reaction time 0 h",not detected
same,Decomposition efficiency: ratio of each glycoside/aglycon within its isoflavone family,"Crude diglycosidase; defatted soybean, substrate concentration 5%, heat treatment of enzyme no, reaction time 1 h",not detected
same,Decomposition efficiency: ratio of each glycoside/aglycon within its isoflavone family,"Crude diglycosidase; defatted soybean, substrate concentration 5%, heat treatment of enzyme no, reaction time 3 h",not detected
same,Decomposition efficiency: ratio of each glycoside/aglycon within its isoflavone family,"Crude diglycosidase; defatted soybean, substrate concentration 5%, heat treatment of enzyme no, reaction time 6 h",not detected
same,Decomposition efficiency: ratio of each glycoside/aglycon within its isoflavone family,"Crude diglycosidase; defatted soybean, substrate concentration 5%, heat treatment of enzyme yes, reaction time 6 h",not detected
same,Decomposition efficiency: ratio of each glycoside/aglycon within its isoflavone family,"Crude diglycosidase; defatted soybean, substrate concentration 10%, heat treatment of enzyme no, reaction time 0 h",not detected
same,Decomposition efficiency: ratio of each glycoside/aglycon within its isoflavone family,"Crude diglycosidase; defatted soybean, substrate concentration 10%, heat treatment of enzyme no, reaction time 1 h",not detected
